# Results published in patent US20240099298A1, “BIOINSECTICIDAL COMPOSITIONS CONTAINING MONOTERPENES AND METHODS OF USE THEREOF” (priority 2017, published 2024).
# Structures can show the parent of a compound that is named as a salt. Where two headings read alike, the source gives them in different places. Marks after values point to notes of the source that are not given here.
# Columns and labels:
# [1] = tested on: adult T. palmi; details: cited from earlier work
# [2] = cited from earlier work
# [3] = tested on: Megalurothrips usitatus (flower Thrips); details: for activity against flower Thrips in preliminary screening: adult M. usitatus, 24 hours of fumigation in 1-L flasks; for mortality: in vivo
# [4] = tested on: M. domestica (housefly); experiment: Median lethal time (LT50) test, housefly; assay type: in vivo, Musca domestica
# Excerpt: (§1) All treatments and controls were in triplicate.
# (§2) Toxicity of Monoterpenes as Fumigants. […] Therefore, to determine how fast the monoterpenes act as fumigants, it was necessary to determine their LT50 values for the target organisms.
# [5] = tested on: H. picinus (Nitidulid beetle); experiment: Median lethal time (LT50) test, Nitidulid beetle; assay type: in vivo, Haptoncus picinus
# Excerpt: as §1, §2
# [6] = tested on: B. cucuribitae (melon fly); experiment: Median lethal time (LT50) test, melon fly; assay type: in vivo, Bactrocera cucuribitae
# Excerpt: as §1, §2
# [7] = tested on: A. japonicus (parasitic wasp); experiment: Median lethal time (LT50) test, parasitic wasp (natural enemy); details: non-target parasitic wasp
# Description: (§3) Insect Egg Parasitic Wasp (Natural Enemy). […] Both species were purchased from a commercial source. One- to two-day-old adults (after eclosion) were used for fumigation tests.
# Median Lethal Time (LT50) and Median Knockdown Concentration (KC50) Tests. Five species of adult insects or natural enemies were tested for LT50 values including melon fly (B. cucuribitae), red flour beetle (T. castaneum), Nitidulidae beetle (H. picinus), parasitic wasp (A. japonicus) and housefly (M. domestica). For each treatment and control, 20 insects at the developmental stages described above were placed individually without food in a 1-L wide-mouth glass bottle (height 19.5 cm, bottom diameter 10.5 cm, mouth i.d. 5.5 cm) containing pieces of tissue paper. […] Five different concentrations of the test chemicals were placed on pieces of cellulose-based qualitative filter paper. Each of the filter papers was placed in a bottle to have 5 appropriate concentrations in serial dilutions. DDVP was the positive control, and no chemical treatments were the negative control. All treatments and controls were in triplicate. Mortality was observed periodically in a 10-30 minute interval for 2 days or until all insects died. The death was defined as no movement when the insects were touched.
# [8] = tested on: T. castaneum (red flour beetle); experiment: Median lethal time (LT50) test, red flour beetle; assay type: in vivo, Tribolium castaneum
# Excerpt: as §1, §2
# [9] = tested on: Musca domestica (housefly); experiment: Median knockdown concentration (KC50) test, housefly; assay type: in vivo; details: for KC50 (fiducial limits): Musca domestica; for time within which the insects responded: houseflies
# Excerpt: as §1
# (§4) Knockdown Activity of Monoterpenes.
# [10] = tested on: Tetranychus cinnabarinus (Boisduval) (spider mites)
# Excerpt: (§5) Median Lethal Concentration Tests. […] The species tested included Thrips (M. usitatus), spider mite (T. cinnabarinus), melon fly (B. cucuribitae), cockroach (B. lateralis), housefly (M. domestica), mosquito (A. aegypti), parasitic wasp (T. chilonis) and fruit fly (Drosophila melanogaster). After being exposed to the test chemicals for one hour, adult Thrips, spider mites, and roaches were transferred to another flask. In addition to fresh water, adult Thrips, spider mites, and roaches were then respectively fed with cowpea, fresh blade of eggplant, and peanut oil via filter. […] Mortality of melon fly was observed after three hours of exposure.
# [11] = tested on: Bactrocera cucuribitae (Coquillett) (melon fly)
# Excerpt: as §5
# [12] = tested on: Musca domestica (Linnaeus) (housefly)
# Excerpt: as §5
# [13] = tested on: Aedes aegypti (Linnaeus) (mosquito)
# Excerpt: as §5
# [14] = tested on: Blatta lateralis (Walker) (cockroach)
# Excerpt: as §5
# [15] = tested on: Aedes aegypti (mosquito); experiment: Median knockdown concentration (KC50) test, mosquito; assay type: in vivo
# Excerpt: as §1, §4
# [16] = tested on: T. chilonis (parasitic wasp); details: non-target parasitic wasp, mortality after 15 minutes of exposure
# Excerpt: as §3, §5
# [17] = tested on: Megalurothrips usitatus (Bagrall) (thrips); experiment: Median lethal concentration fumigation test, thrips; details: adult thrips, exposed one hour, mortality observed in 24 hours
# Excerpt: as §5
# [18] = tested on: flower Thrips; experiment: Field test in cowpea fields, thrips; assay type: in vivo
# Description: (§6) Field Tests. […] Therefore, it was determined whether this compound could control Thrips in the field. Linalool was in 20-, 10- and 5.0-fold dilutions with edible peanut oil. The positive control was spinetoram (Dow AgroSciences) in 3000-fold dilution.
# (§7) The field experimental plots were 15 m^2 in size, in triplicate. A designated sprayer (Dia spray No. 3530, Japan Furlpla Co., Japan) was used to spray the solvent only negative control in this experiment. Grub density was calculated at every plot prior to application. During the experiments, the field was also infested with leafhoppers, so that the control efficacy of leafhoppers was also assessed. The number of adult Thrips and leafhoppers was assessed in the treatment and control areas at 1, 3, 5, 7, 14 and 21 days after application. The decline of the adult Thrips and leafhoppers was calculated to assess the control efficacy of linalool.
# Field Applications. To assess the use of monoterpenes in the field, linalool was tested for control of flower Thrips in cowpea fields. […] At 1 and 3 days after treatment, control efficacy respectively reached 98% and 100% for the 10-fold dilution (Table 15). By comparison, the positive control, a 3000-fold dilution of spinetoram, reached 70% and 94% at 1 and 3 days after treatment, respectively (Table 17).
# [19] = tested on: leafhoppers, Cicadella viridi linne; experiment: Field test, leafhoppers; assay type: in vivo; details: Leafhopper
# Description: as §6, §7
# A 10-fold dilution of linalool was also the most efficacious application, compared to 5- and 20-fold dilutions, in controlling leafhoppers, Cicadella viridi linne (Hemiptera: Cicadellidae). At 7 and 14 days after treatment, the control efficacy of the 10-fold dilution of linalool reached 96% and 98%, respectively.
# [20] = adult housefly, exposed one hour, mortality in 24 hours
# [21] = adult mosquito, exposed 30 minutes, mortality in 24 hours
# [22] = cockroach second instar nymphs, exposed one hour
compound,measurement,setting,value
"CC12CCC(CC1=O)C2(C)C (racemic) [(±)-camphor, reference compound]","LC50, fumigation toxicity",[1],9.7 µg/mL
C=C(C)[C@H]1CC=C(C)CC1 [(+)-Limonene],Vp (Pa)/T (° C.),[2]; T 25 °C,263.97/25 Pa
same,activity against flower Thrips in preliminary screening,[3],not active
C=C(C)[C@@H]1CC=C(C)CC1 [(−)-Limonene],Vp (Pa)/T (° C.),[2]; T 25 °C,206.65/25 Pa
same,activity against flower Thrips in preliminary screening,[3],not active
C=C[C@](C)(O)CCC=C(C)C [(−)-Linalool],Vp (Pa)/T (° C.),[2]; T 23.5 °C,21.20/23.5 Pa
CC(C)=O [Acetone],LT50 (fiducial limits),[4],>48^a ^ hour
same,LT50 (fiducial limits),[5],>48^a ^ hour
same,mortality,[3],No mortality
same,LT50 (fiducial limits),[6],>48^a ^ hour
same,LT50 (fiducial limits) against A. japonicus,[7],>48^a hour
same,LT50 (fiducial limits),[8],>48^a ^ hour
Cc1ccc(C(C)C)cc1O [Carvacrol],LT50 (fiducial limits),[4],2.30 h
same,KC50 (fiducial limits),[9]; 10 Minutes,>7600 µg/mL
same,KC50 (fiducial limits),[9]; 20 Minutes,>243 µg/mL
same,KC50 (fiducial limits),[9]; 30 Minutes,>243 µg/mL
same,time within which the insects responded,[9],≤ 10 min
same,Vp (Pa)/T (° C.),[2]; T 25 °C,3.99/25 Pa
same,LT50 (fiducial limits),[5],1.94 h
same,activity against flower Thrips in preliminary screening,[3],exhibit insecticidal activity
same,LT50 (fiducial limits),[6],2.49 h
same,LC50 (fiducial limits),"[10]; spider mites, exposed one hour",37.5 µg/mL
same,LC90 (fiducial limits),"[10]; spider mites, exposed one hour",510 µg/mL
same,LC50 (fiducial limits),[11]; melon fly,>243 µg/mL
same,LC90 (fiducial limits),[11]; melon fly,>243 µg/mL
same,LC50 (fiducial limits),[12]; [20],>243 µg/mL
same,LC90 (fiducial limits),[12]; [20],>243 µg/mL
same,LC50 (fiducial limits),[13]; [21],0.77 µg/mL
same,LC90 (fiducial limits),[13]; [21],3.92 µg/mL
same,LC50 (fiducial limits),[14]; [22],84.5 µg/mL
same,LC90 (fiducial limits),[14]; [22],118 µg/mL
same,KC50 (fiducial limits),[15]; 10 Minutes,>243 µg/mL
same,KC50 (fiducial limits),[15]; 20 Minutes,6.0 µg/mL
same,KC50 (fiducial limits),[15]; 30 Minutes,>243 µg/mL
same,LC50 (fiducial limits) against T. chilonis,[16],826 µg/mL
same,LC90 (fiducial limits) against T. chilonis,[16],7.08 µg/mL
same,LT50 (fiducial limits) against A. japonicus,[7],3.32 (2.05-7220) hour
same,LC50 (fiducial limits),[17],>19.2 µg/mL
same,LC90 (fiducial limits),[17],>19.2 µg/mL
same,LT50 (fiducial limits),[8],9.95 h
ClC(Cl)Cl [Chloroform],LT50 (fiducial limits),[4],>48^a ^ hour
same,LT50 (fiducial limits),[5],>48^a ^ hour
same,mortality,[3],No mortality
same,LT50 (fiducial limits),[6],>48^a ^ hour
same,LT50 (fiducial limits) against A. japonicus,[7],>48^a hour
same,LT50 (fiducial limits),[8],>48^a ^ hour
C=CCc1ccc(OC)cc1 [Estragole],LT50 (fiducial limits),[4],1.04 h
same,KC50 (fiducial limits),[9]; 20 Minutes,>502 µg/mL
same,KC50 (fiducial limits),[9]; 30 Minutes,>243 µg/mL
same,LT50 (fiducial limits),[5],0.60 h
same,activity against flower Thrips in preliminary screening,[3],exhibit insecticidal activity
same,LT50 (fiducial limits),[6],1.69 h
same,LC50 (fiducial limits),[10]; in vivo,3.28 µg/mL
same,LC90 (fiducial limits),"[10]; spider mites, exposed one hour",21.0 µg/mL
same,LC50 (fiducial limits),[11]; in vivo,483 µg/mL
same,LC90 (fiducial limits),[11]; melon fly,953 µg/mL
same,LC90 (fiducial limits),[12]; [20],15.3 µg/mL
same,LC50 (fiducial limits),[12]; in vivo,5.89 µg/mL
same,LC90 (fiducial limits),[13]; [21],0.91 µg/mL
same,LC50 (fiducial limits),[13]; in vivo,0.25 µg/mL
same,LC90 (fiducial limits),[14]; [22],15.3 µg/mL
same,LC50 (fiducial limits),[14]; in vivo,24.1 µg/mL
same,KC50 (fiducial limits),[15]; 10 Minutes,>8.1 µg/mL
same,KC50 (fiducial limits),[15]; 20 Minutes,2.32 µg/mL
same,KC50 (fiducial limits),[15]; 30 Minutes,>8.1 µg/mL
same,LC50 (fiducial limits) against T. chilonis,[16],1.64 µg/mL
same,LC90 (fiducial limits) against T. chilonis,[16],34.9 µg/mL
same,LT50 (fiducial limits) against A. japonicus,[7],1.19 (1.02-1.37) hour
same,LC50 (fiducial limits),[17],0.24 µg/mL
same,LC90 (fiducial limits),[17],1.29 µg/mL
same,LC50 (fiducial limits),[17]; listed as estragole,0.241 µg/mL
same,LT50 (fiducial limits),[8],8.23 h
C=CC(=C)CCC=C(C)C [Myrcene],Vp (Pa)/T (° C.),[2]; T 25 °C,278.64/25 Pa
same,activity against flower Thrips in preliminary screening,[3],not active
"CCOC=O [ethyl formate, reference compound]",LC50,"[3]; flower Thrips, positive fumigant control",greater than 9.2 μg/cm^3
C/C=C/c1ccc(OC)cc1 [trans-Anethole],LT50 (fiducial limits),[4],2.01 h
same,KC50 (fiducial limits),[9]; 30 Minutes,>243 µg/mL
same,time within which the insects responded,[9],≤ 30 min
same,LT50 (fiducial limits),[5],1.07 h
same,activity against flower Thrips in preliminary screening,[3],exhibit insecticidal activity
same,LT50 (fiducial limits),[6],2.28 h
same,KC50 (fiducial limits),[15]; 10 Minutes,>8.1 µg/mL
same,KC50 (fiducial limits),[15]; 20 Minutes,4.84 µg/mL
same,KC50 (fiducial limits),[15]; 30 Minutes,4.05 µg/mL
same,LT50 (fiducial limits) against A. japonicus,[7],0.933 (0.73-1.11) hour
same,LT50 (fiducial limits),[8],7.97 h
Spinetoram,Control Efficacy,[18]; 1 DAT,70%
same,Control Efficacy,[18]; 3 DAT,94%
same,Control Efficacy,[18]; 5 DAT,37%
same,Control Efficacy,[18]; 7 DAT,33%
same,Control Efficacy,[18]; 14 DAT,62%
same,Control Efficacy,[18]; 21 DAT,0%
same,Control Efficacy,[19]; 1 DAT,68%
same,Control Efficacy,[19]; 3 DAT,87%
same,Control Efficacy,[19]; 5 DAT,36%
same,Control Efficacy,[19]; 7 DAT,49%
same,Control Efficacy,[19]; 14 DAT,66%
same,Control Efficacy,[19]; 21 DAT,25%
